The values that follow come from PubChem BioAssay AID328 (DTP/NCI, 2004).

The structures appear in SMILES notation. Where “and” joins values, the source holds several entries; their conditions need not be identical. Equal entries are not always repeated. Inconclusive results and toxic doses are left out.

For this assay, the system named is BDF1 mice, P388 leukemia ip, median survival T/C. The assay can be described thus: NCI In Vivo Anticancer Drug Screen. Data for tumor model P388 Leukemia (intraperitoneal) in B6D2F1 (BDF1) mice. To be noted: endpoint: median survival time, higher = longer survival. In outline: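 Compound-treated tumour-bearing mice were compared with vehicle-treated controls. Survival was recorded, and the value is the treated-group measurement divided by the control-group measurement (T/C).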

Setting [1] is: dose: 12.5 mg/kg/injection, schedule: Q01DX009 (ip), vehicle: saline.
[2] abbreviates: dose: 25.0 mg/kg/injection, schedule: Q01DX009 (ip), vehicle: saline.
[3] abbreviates: dose: 12.5 mg/kg/injection, schedule: Q01DX009 (ip), vehicle: saline with Tween-80.
[4] abbreviates: dose: 25.0 mg/kg/injection, schedule: Q01DX009 (ip), vehicle: saline with Tween-80.
Setting [5] is: dose: 50.0 mg/kg/injection, schedule: Q01DX009 (ip), vehicle: saline with Tween-80.
Where [6] appears, read: dose: 100.0 mg/kg/injection, schedule: Q01DX009 (ip), vehicle: saline.
Where [7] appears, read: dose: 100.0 mg/kg/injection, schedule: Q04DX003 (ip), vehicle: saline.
Setting [8] is: dose: 200.0 mg/kg/injection, schedule: Q01DX009 (ip), vehicle: saline.
The mark [9] stands for this setting: dose: 200.0 mg/kg/injection, schedule: Q04DX003 (ip), vehicle: saline.
Where [10] appears, read: dose: 100.0 mg/kg/injection, schedule: Q04DX003 (ip), vehicle: saline with Tween-80.
[11] abbreviates: dose: 200.0 mg/kg/injection, schedule: Q04DX003 (ip), vehicle: saline with Tween-80.
Setting [12] is: dose: 400.0 mg/kg/injection, schedule: Q04DX003 (ip), vehicle: saline with Tween-80.
Setting [13] is: dose: 50.0 mg/kg/injection, schedule: Q04DX003 (ip), vehicle: saline with Tween-80.
Setting [14] is: dose: 100.0 mg/kg/injection, schedule: Q01DX009 (ip), vehicle: saline with Tween-80.
Where [15] appears, read: dose: 200.0 mg/kg/injection, schedule: Q01DX009 (ip), vehicle: saline with Tween-80.
Setting [16] is: dose: 50.0 mg/kg/injection, schedule: Q04DX003 (ip), vehicle: Klucel (hydroxypropylcellulose) (HPC).
[17] abbreviates: dose: 50.0 mg/kg/injection, schedule: Q01DX009 (ip), vehicle: saline.

On to `O=C(CC/[N+]([O-])=C/c1ccccc1)OCc1ccccc1`, for which the T/C is, setting by setting: (dose: 12.5 mg/kg/injection, schedule: Q01DX009 (ip), vehicle: other) 92 % of control; (dose: 25.0 mg/kg/injection, schedule: Q01DX009 (ip), vehicle: other) 97 % of control; (dose: 50.0 mg/kg/injection, schedule: Q01DX009 (ip), vehicle: other) 103 % of control; (dose: 100.0 mg/kg/injection, schedule: Q01DX009 (ip), vehicle: other) 97 % of control; (dose: 200.0 mg/kg/injection, schedule: Q01DX009 (ip), vehicle: other) 92 % of control.

For `CC(C)N(CC#N)C(C)C`, the T/C reads like this: (dose: 0.25 mg/kg/injection, schedule: Q04DX003 (ip), vehicle: saline with Tween-80) 91 % of control; (dose: 0.5 mg/kg/injection, schedule: Q04DX003 (ip), vehicle: saline with Tween-80) 101 % of control.

`CC([OH2+])CNCCN.CC([OH2+])CNCCN.O=[N+]([O-])[O-].[Cu+2]` (stereo not drawn): the T/C runs as follows: under setting [1], 110 % of control; under setting [2], 113 % of control.

On to `CC(=O)OCc1cc(=O)n(C)c2c3c4c(cc12)c(C)cc(=O)n4CO3`, for which, under “dose: 100.0 mg/kg/injection, schedule: Q01DX001 (ip), vehicle: Klucel (hydroxypropylcellulose) (HPC)”, the T/C was 120 % of control.

With `CCOC(=O)C1Cc2c([nH]c(=S)[nH]c2=O)OC1c1ccccc1` (stereo not drawn), the T/C is, setting by setting: under setting [3], 100 % of control; under setting [4], 90 % of control; under setting [5], 104 % of control.

For the compound `Cc1cc(N)on1`, the T/C by setting is: under setting [6], 100 % of control; under setting [7], 109 % of control; under setting [8], 96 % of control; under setting [9], 109 % of control; (dose: 400.0 mg/kg/injection, schedule: Q04DX003 (ip), vehicle: saline) 109 % of control.

For the compound `Cc1c(-c2ccccc2)cc(O)cc1-c1ccccc1`, the T/C is 101 % of control (dose: 12.5 mg/kg/injection, schedule: Q04DX003 (ip), vehicle: saline); 97 % of control and 114 % of control (dose: 25.0 mg/kg/injection, schedule: Q04DX003 (ip), vehicle: saline); 102 % of control (2×) and 112 % of control (dose: 50.0 mg/kg/injection, schedule: Q04DX003 (ip), vehicle: saline); 88 % of control and 109 % of control under setting [7]; 93 % of control (dose: 150.0 mg/kg/injection, schedule: Q04DX003 (ip), vehicle: saline); 93 % of control and 101 % of control and 102 % of control under setting [9].

Consider `COC(=O)c1cncc(C(=O)OC)c1`, for which the T/C is, setting by setting: under setting [10], 100 % of control; (dose: 176.0 mg/kg/injection, schedule: Q04DX003 (ip), vehicle: saline with Tween-80) 100 % of control; under setting [11], 95 % of control; (dose: 264.0 mg/kg/injection, schedule: Q04DX003 (ip), vehicle: saline with Tween-80) 100 % of control; under setting [12], 100 % of control.

Regarding `COc1cc(/C=N\NC(=O)CC#N)cc(OC)c1OC`, the T/C is, setting by setting: under setting [5], 90 % of control; under setting [13], 95 % of control; under setting [14], 104 % of control; under setting [10], 95 % of control; under setting [15], 100 % of control; under setting [11], 95 % of control.

Regarding `COc1cc(C=Nc2ccc(C(=O)O)c(O)c2)ccc1N(CCCl)CCCl`, the T/C was 196 % of control (dose: 3.6 mg/kg/injection, schedule: Q01DX009 (ip), vehicle: Klucel (hydroxypropylcellulose) (HPC)); 94 % of control (dose: 5.4 mg/kg/injection, schedule: Q01DX009 (ip), vehicle: Klucel (hydroxypropylcellulose) (HPC)); 245 % of control (dose: 8.2 mg/kg/injection, schedule: Q01DX009 (ip), vehicle: Klucel (hydroxypropylcellulose) (HPC)); 184 % of control (dose: 8.3 mg/kg/injection, schedule: Q01DX009 (ip), vehicle: Klucel (hydroxypropylcellulose) (HPC)); 230 % of control and 272 % of control and 213 % of control (dose: 12.5 mg/kg/injection, schedule: Q01DX009 (ip), vehicle: Klucel (hydroxypropylcellulose) (HPC)); 115 % of control (dose: 12.5 mg/kg/injection, schedule: Q04DX003 (ip), vehicle: Klucel (hydroxypropylcellulose) (HPC)). For the same compound, the T/C (dose: 18.75 mg/kg/injection, schedule: Q01DX009 (ip), vehicle: Klucel (hydroxypropylcellulose) (HPC)) is 96 % of control; the T/C (dose: 25.0 mg/kg/injection, schedule: Q04DX003 (ip), vehicle: Klucel (hydroxypropylcellulose) (HPC)) was 115 % of control; the T/C under setting [16] is 100 % of control.

As to `CC(=O)N1C=Cn2c(cnc2C)C1O` (stereo not drawn), the T/C reads like this: (dose: 100.0 mg/kg/injection, schedule: Q04DX003 (ip), vehicle: water) 96 % of control; (dose: 200.0 mg/kg/injection, schedule: Q04DX003 (ip), vehicle: water) 91 % of control; (dose: 400.0 mg/kg/injection, schedule: Q04DX003 (ip), vehicle: water) 99 % of control.

For `O=C1OC(c2ccccc2)=C/C1=C/c1ccc([N+](=O)[O-])cc1`, the T/C is 104 % of control under setting [4]; 90 % of control under setting [5]; 105 % of control under setting [13]; 100 % of control under setting [14]; 109 % of control under setting [10]; 92 % of control under setting [15]. The T/C reads like this: under setting [11], 99 % of control and 104 % of control; (dose: 300.0 mg/kg/injection, schedule: Q04DX003 (ip), vehicle: saline with Tween-80) 87 % of control; (dose: 400.0 mg/kg/injection, schedule: Q01DX009 (ip), vehicle: saline with Tween-80) 92 % of control; under setting [12], 96 % of control; (dose: 600.0 mg/kg/injection, schedule: Q04DX003 (ip), vehicle: saline with Tween-80) 91 % of control.

Consider `c1cc2c(c(CC3CO3)c1CC1CO1)OCCOCCOCCOCCO2` (stereo not drawn), for which the T/C reads like this: (dose: 6.0 mg/kg/injection, schedule: Q01DX009 (ip), vehicle: saline + alcohol) 98 % of control and 105 % of control; (dose: 12.0 mg/kg/injection, schedule: Q01DX009 (ip), vehicle: saline + alcohol) 108 % of control; (dose: 24.0 mg/kg/injection, schedule: Q01DX009 (ip), vehicle: saline + alcohol) 113 % of control.

For the compound `CCSC1(SCC)C(=O)OC2=C(CCCC2)C1N(C)c1ccccc1` (stereo not drawn), the T/C was 96 % of control under setting [5], 94 % of control under setting [14] and 91 % of control under setting [15].

As to `CC1=C(O)C(O)C2OC2C1=O` (stereo not drawn), the T/C by setting is: under setting [1], 96 % of control; under setting [2], 87 % of control; under setting [17], 107 % of control.

`Cn1c(=O)[nH]c(=O)c2nc(-c3cccnc3)c(-c3ccncc3)nc21`: the T/C was 101 % of control (dose: 100.0 mg/kg/injection, schedule: Q04DX002 (ip), vehicle: saline with Tween-80); 99 % of control (dose: 200.0 mg/kg/injection, schedule: Q04DX002 (ip), vehicle: saline with Tween-80); 110 % of control (dose: 400.0 mg/kg/injection, schedule: Q04DX002 (ip), vehicle: saline with Tween-80).

Take `CCOC(=O)C(CCSC(C)=O)SC(C)=O` (stereo not drawn): the T/C is 96 % of control (dose: 6.25 mg/kg/injection, schedule: Q01DX009 (ip), vehicle: saline with Tween-80); 122 % of control under setting [3]; 111 % of control (dose: 12.5 mg/kg/injection, schedule: Q04DX003 (ip), vehicle: saline with Tween-80); 114 % of control under setting [4]; 115 % of control (dose: 25.0 mg/kg/injection, schedule: Q04DX003 (ip), vehicle: saline with Tween-80); 104 % of control under setting [5]. Also, the T/C under setting [13] was 109 % of control and 111 % of control.

With `COC(OC)C1(O)CC(C(C)/C=C(/C)C(CC(=O)N(C)c2ccccc2)OCc2ccccc2)OC(=O)N1` (stereo not drawn), the T/C was 99 % of control under setting [16]; 109 % of control (dose: 100.0 mg/kg/injection, schedule: Q04DX003 (ip), vehicle: Klucel (hydroxypropylcellulose) (HPC)); 118 % of control (dose: 200.0 mg/kg/injection, schedule: Q04DX003 (ip), vehicle: Klucel (hydroxypropylcellulose) (HPC)).

In the case of `O=C(O)C(Cl)Cc1cnc[nH]1` (stereo not drawn), the T/C under setting [17] is 97 % of control and 91 % of control; the T/C under setting [6] was 107 % of control and 87 % of control; the T/C under setting [8] was 103 % of control and 95 % of control.
